Data published in the supplement of paper PMC5579334.
± gives the standard deviation of the averaged measurements.

Columns and labels:
[1] = tested on: HSC1 (primary human Schwann cells); test: drug sensitivity score (DSS, CellTox-Green cytotoxicity, 72 h) (DSS (dimensionless)); higher = more cytotoxic; extreme values may be limits of the assay
How it was run: (§1)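 MPNST cell lines and primary human Schwann cells were incubated 72 h at 37 °C in 384-well plates holding five 10-fold compound dilutions. CellTox-Green was added before seeding at a final 1:1000 dilution and reported fluorescence from DNA released by disrupted cells. Signals were scaled to vehicle and positive-control wells, and cultures failing plate quality control were dropped. Drug sensitivity score and relative IC50 come from four-parameter logistic fits, with IC50 censored at the top concentration.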

[2] = tested on: HSC2 (primary human Schwann cells); test: as above
How it was run: as §1

ST8814 [3] = test: as above
How it was run: as §1

S1507-2 [4] = test: as above
How it was run: as §1

STS26T [5] = test: as above
How it was run: as §1

HS-PSS [6] = test: as above
How it was run: as §1

[7] = tested on: HSC1 (primary human Schwann cells); test: drug sensitivity score (DSS, CellTiter-Glo viability, 72 h) (DSS (dimensionless)); higher = more sensitive; extreme values may be limits of the assay
How it was run: (§2)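 Viability was scored by CellTiter-Glo ATP luminescence, scaled from vehicle to positive-control wells, with duplicates averaged where present. The cells, MPNST lines and primary human Schwann cells at 750–1000 per well, sat 72 h at 37 °C, 5% CO2, in 384-well plates preprinted with each compound at five concentrations in 10-fold steps. Four-parameter logistic fits were run on the data. These fits give drug sensitivity score and relative IC50 censored at the top concentration, and percent inhibition is reported at the top concentration.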

YST-1 [8] = test: as above
How it was run: as §2

S462 [9] = test: as above
How it was run: as §2

[10] = tested on: HSC2 (primary human Schwann cells); test: as above
How it was run: as §2

ST8814 [11] = test: as above
How it was run: as §2

S1507-2 [12] = test: as above
How it was run: as §2

STS26T [13] = test: as above
How it was run: as §2

HS-Sch-2 [14] = test: as above
How it was run: as §2

HS-PSS [15] = test: as above
How it was run: as §2

[16] = tested on: HSC1 (primary human Schwann cells); test: % inhibition of CellTiter-Glo viability at highest tested concentration (72 h), relative to DMSO and benzethonium chloride controls; higher = more inhibition
How it was run: as §2

YST-1 [17] = test: as above
How it was run: as §2

S462 [18] = test: as above
How it was run: as §2

[19] = tested on: HSC2 (primary human Schwann cells); test: as above
How it was run: as §2

ST8814 [20] = test: as above
How it was run: as §2

S1507-2 [21] = test: as above
How it was run: as §2

STS26T [22] = test: as above
How it was run: as §2

HS-Sch-2 [23] = test: as above
How it was run: as §2

HS-PSS [24] = test: as above
How it was run: as §2

Row | SMILES | drug sensitivity score [1] | drug sensitivity score [2] | drug sensitivity score (ST8814 [3]) | drug sensitivity score (S1507-2 [4]) | drug sensitivity score (STS26T [5]) | drug sensitivity score (HS-PSS [6]) | drug sensitivity score [7] | drug sensitivity score (YST-1 [8]) | drug sensitivity score (S462 [9]) | drug sensitivity score [10] | drug sensitivity score (ST8814 [11]) | drug sensitivity score (S1507-2 [12]) | drug sensitivity score (STS26T [13]) | drug sensitivity score (HS-Sch-2 [14]) | drug sensitivity score (HS-PSS [15]) | % inhibition [16] | % inhibition (YST-1 [17]) | % inhibition (S462 [18]) | % inhibition [19] | % inhibition (ST8814 [20]) | % inhibition (S1507-2 [21]) | % inhibition (STS26T [22]) | % inhibition (HS-Sch-2 [23]) | % inhibition (HS-PSS [24])
1 | COc1cc2ncnc(Nc3ccc(F)c(Cl)c3)c2cc1OCCCN1CCOCC1 [Gefitinib] (max concentration tested 10000 nM) | 0 | 0 | 5.95 | 2.49 ± 3.5 | 0.896 | 0 | 2.58 | 5.06 | 1.43 ± 0.69 | 3.41 | 3.34 | 2.3 ± 1.1 | 2.37 | 4.94 | 5.27 | 46.2% | 46.2% | 39.9 ± 12% | 54.7% | 68.4% | 49.1 ± 12% | 53.6% | 60.2% | 61.4%
2 | Cn1cc(C2=C(c3cn(C4CCN(Cc5ccccn5)CC4)c4ccccc34)C(=O)NC2=O)c2ccccc21 [Enzastaurin] (max concentration tested 10000 nM) | 0 | 0 | 0 | 0 | 0.0176 | 0 | 1.32 | 0 | 0.0347 ± 0.049 | 1.06 | 0.0668 | 3.15 ± 2.5 | 1.09 | 0.28 | 3.43 | 21.8% | -1.13% | 10.8 ± 2.6% | 25.1% | 12.8% | 26.9 ± 3.6% | 19.9% | 12.3% | 11.3%
3 | CN1CCN(c2nc(C3=C(c4c[nH]c5ccccc45)C(=O)NC3=O)c3ccccc3n2)CC1 [Sotrastaurin] (max concentration tested 10000 nM) | 0 | 0 | 0 | 0 | 0 | 0 | 0 | 0.45 | 0.0588 ± 0.083 | 0 | 0.337 | 0.00765 ± 0.011 | 0 | 0 | 0 | -32.7% | 17.7% | 11.8 ± 2% | -36.1% | 7.08% | 6.26 ± 6.6% | -3.71% | 5.75% | 3.47%
4 | C[C@]12C=CC(=O)C=C1CC[C@@H]1[C@@H]2C(=O)C[C@@]2(C)[C@H]1CC[C@]2(O)C(=O)CO [Prednisone] (max concentration tested 10000 nM) | 0 | 0 | 0 | 0 | 0 | 0 | 0 | 0 | 0 | 0 | 0 | 0 | 0 | 0.07 | 0 | -0.144% | -5.67% | -0.361 ± 2% | 2.63% | -2.07% | 0.647 ± 14% | 4.83% | 12.9% | 3.03%
5 | CC(C)C[C@H](NC(=O)[C@@H](COC(C)(C)C)NC(=O)[C@H](Cc1ccc(O)cc1)NC(=O)[C@H](CO)NC(=O)[C@H](Cc1c[nH]c2ccccc12)NC(=O)[C@H](Cc1cnc[nH]1)NC(=O)[C@@H]1CCC(=O)N1)C(=O)N[C@@H](CCCNC(=N)N)C(=O)N1CCC[C@H]1C(=O)NNC(N)=O [Goserelin] (max concentration tested 10000 nM) | 0 | 0 | 0 | 0.454 ± 0.64 | 0 | 0 | 0 | 0 | 0 | 0 | 0 | 0 | 0 | 0.06 | 0 | 6.11% | -0.8% | 0.735 ± 5% | -4.29% | 4.22% | -0.69 ± 5% | 7.86% | 11.2% | -4.24%
6 | CNC(=O)c1cc(Oc2ccc(NC(=O)Nc3ccc(Cl)c(C(F)(F)F)c3)cc2)ccn1 [Sorafenib] (max concentration tested 1000 nM) | 0 | 0 | 0 | 0 | 0 | 0 | 0 | 0 | 0 | 0 | 0 | 0 | 0 | 0 | 0 | -5.93% | 11.4% | -1.24 ± 2.1% | -21.1% | -4.54% | -6.35 ± 3.5% | -3.72% | -11.4% | -0.19%
7 | CC(C)(C)c1cc(NC(=O)Nc2ccc(-c3cn4c(n3)sc3cc(OCCN5CCOCC5)ccc34)cc2)no1 [Quizartinib] (max concentration tested 1000 nM) | 0 | 0 | 0 | 0 | 0 | 0 | 3.73 | 7.45 | 4.8 ± 1.2 | 1.32 | 2.56 | 1.94 ± 0.75 | 1.24 | 0.1 | 0 | 47.8% | 78.7% | 64.2 ± 37% | 36.6% | 15.8% | 21.3 ± 1.4% | 15.3% | 14.4% | -10.7%
8 | NC(=O)NO [Hydroxyurea] (max concentration tested 100000 nM) | 0 | 0 | 0 | 0 | 0 | 0 | 0.337 | 0 | 0 | 0 | 0 | 0 | 0 | 0.56 | 0 | 16.3% | 8.97% | -3.38 ± 4.4% | 9.58% | 3.1% | 5.18 ± 7.5% | 3.66% | 20.8% | 9.89%
